The text below walks through data of patent US8372967B2, “Compounds and methods for modulating expression of GCCR” (Isis Pharmaceuticals, Inc., priority 2006, dated 2013).

Strand notation (5' to 3'): a small letter for the sugar, then the base; units joined by * are phosphorothioate-linked, units joined directly phosphodiester-linked; [ ] holds rarer units or linkages, { } end groups; capitals alone tell only the bases. e = 2'-O-(2-methoxyethyl) (MOE); l = locked nucleic acid (LNA); [5mC] = 5-methylcytosine; d = 2'-deoxy (DNA)

The nature of series [1]: Full-length and total antisense compound tissue concentration in liver and kidney, ApoB study (Table 30). Particulars: Balb/c mice, i.p. twice per week for three weeks, 2.4 μmol/kg. In kind it is in vivo, mouse. As for the experimental part:
Antisense compound doses included 2.4, 1.2, 0.6, 0.3 and 0.15 μmol/kg. For antisense compounds 14 nucleotides in length, these doses equate to approximately 12, 6, 3, 1.5 or 0.75 mg/kg, respectively. Shown in Table 25 are the sequences and motifs of the antisense compounds used in this study. […] Bolded residues indicate 2′-O-methoxyethyl moieties and italicized residues indicate methyleneoxy (4′-CH2—O-2′) BNAs. The internucleoside linkages of each compound are phosphorothioate throughout. All cytosine residues of ISIS 147764 and ISIS 372938 are replaced by 5-methyl cytosines. For ISIS 387462, only the cytosine residue in the wing of the compound is replaced by 5-methyl cytosine. […]
(§1) Forty-eight hours following the final injection, mice were sacrificed to evaluate transaminases (Table 26); liver and kidney weight (Table 27); triglyceride, LDL, HDL and free fatty acid levels (Table 28); target mRNA level in liver (Table 29); target protein level in plasma; and oligonucleotide tissue concentration (Table 30). These endpoints were determined using methods described herein and well known to those of ordinary skill in the art.
To determine whether the observed increase in efficiency with the methyleneoxy (4′-CH2—O-2′) BNA gapmer is due to an increase in oligonucleotide accumulation, full-length and total oligonucleotide concentration in the liver and kidney were determined.

In the next series the test system is ApoB mRNA. Put plainly: ApoB mRNA level in liver, Balb/c mice dosed i.p. twice per week for three weeks (Table 29); EC50 in liver. The format is in vivo, mouse. The note with it: for % ApoB mRNA Level (relative to saline control): liver, Balb/c mice. Here is the method:
Prior to quantitative PCR analysis, primer-probe sets specific to the target gene being measured were evaluated for their ability to be “multiplexed” with a GAPDH amplification reaction. After isolation the RNA is subjected to sequential reverse transcriptase (RT) reaction and real-time PCR, both of which are performed in the same well. RT and PCR reagents were obtained from Invitrogen Life Technologies (Carlsbad, Calif.). […] The RT reaction was carried out by incubation for 30 minutes at 48° C. Following a 10 minute incubation at 95° C. to activate the PLATIN 9M® Taq, 40 cycles of a two-step PCR protocol were carried out: 95° C. for 15 seconds (denaturation) followed by 60° C. for 1.5 minutes (annealing/extension).
170 μL of RiboGreen® working reagent (RiboGreen® reagent diluted 1:350 in 10 mM Tris-HCl, 1 mM EDTA, pH 7.5) was pipetted into a 96-well plate containing 30 μL purified cellular RNA. The plate was read in a CytoFluor® 4000 (PE Applied Biosystems) with excitation at 485 nm and emission at 530 nm.
(§2) Antisense compound doses included 2.4, 1.2, 0.6, 0.3 and 0.15 μmol/kg. For antisense compounds 14 nucleotides in length, these doses equate to approximately 12, 6, 3, 1.5 or 0.75 mg/kg, respectively. Shown in Table 25 are the sequences and motifs of the antisense compounds used in this study. […] Bolded residues indicate 2′-O-methoxyethyl moieties and italicized residues indicate methyleneoxy (4′-CH2—O-2′) BNAs. The internucleoside linkages of each compound are phosphorothioate throughout. All cytosine residues of ISIS 147764 and ISIS 372938 are replaced by 5-methyl cytosines. For ISIS 387462, only the cytosine residue in the wing of the compound is replaced by 5-methyl cytosine. ApoB antisense compounds are targeted to publicly available ApoB-100 sequences, including Genbank Accession No. XM—137955.5 (SEQ ID NO: 2).
as §1
The EC50 for ISIS 387462 in the liver was determined by comparing oligonucleotide concentration in the liver to inhibition of ApoB mRNA.

A short description of series [2]: Triglyceride, total cholesterol, HDL, LDL and free fatty acid levels, ApoB study (Table 28). In kind it is in vivo, mouse. The arrangement: Free Fatty Acid (FFA): unit not given here. Particulars: Balb/c mice, i.p. twice per week for three weeks. Here is the method: as §2, §1
Series [3] is described as follows: ALT and AST levels and adverse side effects, ApoB study (Table 26). The format is in vivo, mouse. Particulars: Balb/c mice, i.p. twice per week for three weeks, 48 h after final injection. Here is the method: as §2, §1
A short description of series [4]: Liver and kidney weight, body weight, food consumption, glucose, ApoB study (Table 27). The format is in vivo, mouse. Particulars: Balb/c mice, i.p. twice per week for three weeks. Here is the method: as §2, §1
Glucose levels also were similar among all treatment groups.

The nature of series [5]: Transaminase levels and organ weights, PTEN study (Table 47). The note with it: single i.p. 8 μmol/kg, 72 h. In kind it is in vivo, mouse. The text has this:
(§3) Each dose group consisted of four animals. Shown in Table 46 are the sequences and motifs of the PTEN antisense compounds used in this study. Bolded residues indicate 2′-O-methoxyethyl moieties (2′-MOE) and italicized residues indicate Methyleneoxy BNA nucleotides. Each antisense compound comprises phosphorothioate linkages throughout. In addition, the cytosine residues in the gap of ISIS 384073 and in the wings of ISIS 392056, ISIS 392057, ISIS 392061 and ISIS 392063 are replaced with 5-methylcytosines. Antisense compounds target published PTEN nucleic acids, including Genbank Accession No. U92437.1 (SEQ ID
(§4) Mice were sacrificed 72 hours following injection to determine serum transaminase levels (Table 47); liver and spleen weights (Table 47); and PTEN mRNA levels in liver, kidney and fat (Table 48), according to procedures described herein and well know to one of ordinary skill in the art.

In the next series the test system is PTEN mRNA. Put plainly: PTEN mRNA levels in liver, kidney and fat, Balb/c mice, single i.p. 8 μmol/kg (Table 48). The format is in vivo, mouse. The note with it: 72 h, saline = 100.
Description: as §3, §4

In series [6] the test system is rat SGLT2 mRNA. In words: Rat SGLT2 mRNA in kidney, 1-10-1 and 1-10-2 MOE gapmers, Sprague-Dawley rats (Table 63). In kind it is in vivo. The text has this:
1-10-1 and 1-10-2 MOE gapmer antisense compounds, provided in Table 62, were designed to target different regions of the mouse or rat SGLT2 RNA. All short antisense compounds in Table 62 are chimeric oligonucleotides (“gapmers”) either 12 or 13 nucleotides in length, composed of a central “gap” segment consisting of ten 2′-deoxynucleotides, which are flanked on the 5′ side by a one-nucleoside “wing” and on the 3′ side by a two or one-nucleotide “wing”. […] All cytidine residues are 5-methylcytidines.
The short antisense compounds were analyzed for their effect on rat SGLT2 mRNA levels. Data are ranges taken from three experiments in which Male Sprague-Dawley rats (170-200 g) were dosed twice per week for three weeks with 450, 150 or 50 nmol/kg of either a 1-10-1 or 1-10-2 MOE gapmer given by intraperitoneal injection. Rats were sacrificed 48 hours following last administration and evaluated for SGLT2 mRNA levels in kidney. Target levels were determined by RT, real-time PCR as described by other examples herein. PCR results were normalized to an internal ISIS control.

Series [7] concerns mouse SGLT2 mRNA. Put plainly: Mouse SGLT2 mRNA in kidney, 1-10-1 MOE gapmers, Balb/c mice (Table 65). The format is in vivo. Here is the method: The short antisense compounds were analyzed for their effect on mouse SGLT2 mRNA levels. Data was taken from three experiments in which Male 6-week old Balb/c mice were dosed twice per week for two weeks with 450, 150, or 50 nmol/kg of one of the above 1-10-1 MOE gapmers given by intraperitoneal injection. Mice were sacrificed 48 hours following last administration and evaluated for SGLT2 mRNA levels in kidney. Target levels were determined by RT, real-time PCR as described by other examples herein. PCR results were normalized to an internal ISIS control.

The subject of series [8] is mouse SGLT2 mRNA. In words: Mouse SGLT2 mRNA in kidney, wing, gap and total length variations (Table 61). The format is in vivo. Here is the method:
ISIS 3707171-10-1 MOE gapmer was used as a template to make sequence related oligos with varying motifs. The antisense compounds were designed to target different regions of the mouse or rat SGLT2 nucleic acid, using published sequences (GenBank accession number U29881.1, incorporated herein as SEQ ID NO: 1575, and GenBank accession number AJ292928.1, incorporated herein as SEQ ID NO: 1576, respectively).
The antisense compounds were analyzed for their effect on mouse SGLT2 mRNA levels. Data are ranges taken from three experiments in which mice were dosed twice per week for three weeks with 2.5, 0.5 or 0.1 umol/kg of the above MOE gapmers given by intraperitoneal injection. Mice were sacrificed 48 hours following last administration and evaluated for SGLT2 levels in kidney. SGLT2 mRNA levels were determined by RT, real-time PCR as described by other examples herein. PCR results were normalized to an internal ISIS control.

Series [9] has as its system rat SGLT2 mRNA. In words: Rat SGLT2 mRNA in kidney, 1-10-1 gapmers, 250 nmol/kg (Table 66). In kind it is in vivo. The note with it: 250 nmol/kg i.p. twice per week for three weeks, Sprague-Dawley rat kidney. Here is the method: The effect of the above 1-10-1 gapmers (see Table 64 above) on rat SGLT2 mRNA levels. Data are taken from four experiments in which male Sprague-Dawley rats (170-200 g) were dosed twice per week for three weeks with 250 nmol/kg given by intraperitoneal injection. Rats were sacrificed 48 hours following last administration and evaluated for SGLT2 mRNA levels in kidney. Target levels were determined by RT, real-time PCR as described by other examples herein. PCR results were normalized to an internal ISIS control.

For “372938 (antisense eG*eG*dT*dA*d[5mC]*dA*dT*dG*dG*dA*dA*dG*eT*e[5mC]) [compound 372938]”, the “Kidney Full-Length Antisense Compound Tissue Concentration” value in [1] was found to be 32.0 µM. Also, the “Kidney Total Antisense Compound Tissue Concentration” value in [1] came to 34.0 µM. Further, the “ApoB mRNA level” value with ApoB mRNA (Table 30, Balb/c mice, 2.4 μmol/kg) is recorded as 77 % of saline control. The “% ApoB mRNA Level (relative to saline control)” value with ApoB mRNA (1.2 μmol/kg) was 90.0%; in the series with ApoB mRNA (2.4 μmol/kg), 77.0%. The results for the LDL in series [2] (0.3 μmol/kg) and in series [2] (1.2 μmol/kg) were 11.0 mg/dL and 9.5 mg/dL, respectively. The “Total Cholesterol (CHOL)” value in series [2] (0.6 μmol/kg) is listed as 110 mg/dL. Moreover, the “Free Fatty Acid (FFA)” value in series [2] (1.2 μmol/kg) was determined as 1.70. This substance also came in with an HDL in [2] (2.4 μmol/kg) of 79.0 mg/dL. The AST in series [3] (0.3 μmol/kg) stood at 60.0 IU/L; in [3] (2.4 μmol/kg), 49.0 IU/L. Also, the ALT in series [3] (0.6 μmol/kg) is 28.0 IU/L; in series [3] (2.4 μmol/kg), 26.0 IU/L. Also, the results for the “Kidney Weight” value in series [4] (0.15 μmol/kg) and in series [4] (2.4 μmol/kg) were 98 % of saline control and 100 % of saline control, respectively. The “Liver Weight” value in series [4] (0.15 μmol/kg) is given as 96 % of saline control; in series [4] (0.3 μmol/kg), 91 % of saline control; in series [4] (0.6 μmol/kg), 96 % of saline control; in series [4] (1.2 μmol/kg), 90 % of saline control; in [4] (2.4 μmol/kg), 100 % of saline control.
“391172 (antisense lC*lT*dA*dG*dC*dC*dT*dC*dT*dG*dG*dA*lT*lT*lT) [compound 391172]”: the “Liver Weight” value in series [5] came to 120 % Saline. In addition, in the series on PTEN mRNA, the “% PTEN mRNA levels in Kidney” value came out at 63% and the “% PTEN mRNA levels in Liver” value was found to be 18%.
Take “392061 (antisense l[5mC]*lT*dA*dG*dC*dC*dT*dC*dT*dG*dG*dA*lT*lT) [compound 392061]”: the ALT in [5] is recorded as 42.0 IU/L. Also, in the series on PTEN mRNA, the “% PTEN mRNA levels in Fat” value is on record as 85%, the “% PTEN mRNA levels in Kidney” value is listed as 61% and the “% PTEN mRNA levels in Liver” value was determined as 24%.
“ISIS 370717: TAGCCACCAACT 1-10-1 MOE gapmer, phosphorothioate, SGLT-2 (sugars from the 5' end e1 d10 e1, all phosphorothioate, methylation of C not given here)”: the “% change in SGLT2 expression relative to saline” value with rat SGLT2 mRNA [6] (50 nmol/kg i.p. twice per week for three weeks) is recorded as −55%; in the series with rat SGLT2 mRNA [6] (150 nmol/kg i.p. twice per week for three weeks), −70%; in the series on rat SGLT2 mRNA [6] (450 nmol/kg i.p. twice per week for three weeks) it was −70%; in the series with mouse SGLT2 mRNA [7] (50 nmol/kg i.p. twice per week for two weeks) it was −47.5%; with mouse SGLT2 mRNA [7] (150 nmol/kg i.p. twice per week for two weeks), −55%; with mouse SGLT2 mRNA [7] (450 nmol/kg i.p. twice per week for two weeks) it was −65%. Besides, the “% change in SGLT2 expression relative to saline” value is reported as −55% with mouse SGLT2 mRNA [8] (0.1 umol/kg i.p. twice per week for three weeks), −70% in the series on mouse SGLT2 mRNA [8] (0.5 umol/kg i.p. twice per week for three weeks) and −70% in the series on rat SGLT2 mRNA [9].
